# According to the METLIN SMRT retention time set (Domingo-Almenara et al. 2019):
# Experiment: gradient 5% acetonitrile 3 min, to 50% in 2 min, to 85% in 15 min, held 3 min, 100 µL/min
# Details: column: Zorbax Extend-C18 2.1 x 50 mm; eluents: water / acetonitrile, 0.1% formic acid
# In short: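 The system's dead and dwell volumes were 40 μL and 900 μL, with a Zorbax Extend-C18 column (2.1 × 50 mm, 1.8 μm) run at 100 μL/min in water and acetonitrile containing 0.1% formic acid each. Pure standards were analyzed in mixtures of ~100 molecules by HPLC–quadrupole time-of-flight mass spectrometry in positive and negative ionization mode. Retention time was assigned from computationally picked, manually inspected adduct peaks.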
row,Structure (SMILES),RP-LC retention time [s]
1,C=CCNC(=O)c1cnn(-c2cc(-c3nc(CC)no3)ccn2)c1C,845
2,Cc1ccc(CNC(=O)N2CCN(c3cnn4c(C)nnc4c3)CC2)cc1,568
3,COc1ccc(C2C(=O)N(CCc3ccccc3)CC(=O)N2Cc2ccc3c(c2)OCO3)cc1 (stereo unspecified),933
4,CCCn1cc(CCNS(=O)(=O)c2ccc(Cl)cc2)c2cccnc21,891
5,O=C1N(CN2CCN(c3ccccn3)CC2)c2ccccc2C12OCCCO2,572
6,Cc1cccc(-n2c(Cc3cccn3C)nnc2SCC(=O)NCC2CCCO2)c1C (stereo unspecified),776
7,Cc1cc(=O)n(CC(=O)Nc2ccccc2)c(N2CCc3ccccc3C2)n1,765
8,CCN1CCN(C(=O)c2nc3ccccn3c2-c2ccc(Cl)cc2)CC1,591
9,C[C@]12CCC(=O)C(=O)C1CC[C@@H]1[C@@H]2CC[C@]2(C)C(=O)CC[C@@H]12 (stereo partly specified),1030
10,O=C(CSc1ccc(N2CCCC(C(=O)NC3CC3)C2)nn1)NCc1cccc(C(F)(F)F)c1 (stereo unspecified),678
11,Cc1nc(-c2cccnc2)nc2c1CCC(=O)N2CCN(C)C,503
12,COCc1ncc(C)n1C1CCN(C(=O)c2noc(C)c2Cc2c(C)noc2C)C1 (stereo unspecified),617
13,Cc1nn(CCCC(=O)NCCN(C)C)c(=O)c2c(-n3cccc3)n(-c3ccccc3)nc12,664
14,CC(C)c1ccc(S(=O)(=O)c2cnc(N3CCC(C(N)=O)(N4CCCCC4)CC3)nc2N)cc1,677
15,O=C(c1cc(-c2cccnc2)n[nH]1)N1CCN(C(=O)c2ccc(Br)o2)CC1,605
16,O=S(=O)(Nc1ccccc1)c1cccnc1Nc1ccc(F)cc1,1020
17,O=C(c1ccoc1)N1CC(n2cc(COCc3ccccc3)nn2)C1,734
18,CCCN(C)S(=O)(=O)c1cc(-c2nc(C(C)(C)C)cs2)cs1,1330
19,CCC(C)NC(=O)c1n[nH]c2c1CCCCCC2 (stereo unspecified),850
20,Cc1cc2nn(CC(=O)N(C)c3ccccc3)c(=O)n2c(Nc2ccccc2C)n1,922
21,CN(CC1CCOCC1)C(=O)c1cccs1,664
22,Cc1ccc(-c2noc(C3CC(=O)N(c4ccc5c(c4)OCCO5)C3)n2)cc1 (stereo unspecified),943

row,Structure (SMILES),RP-LC retention time [s]
1,COc1ccc(N2CCN(C(=O)c3cc(NC(C)=O)cc4nc(C)ccc34)CC2)cc1,603
2,Cc1ccc(S(=O)(=O)N2CCC(CC(=O)NC(C)Cc3ccco3)CC2)cc1 (stereo unspecified),907
3,O=C(c1ccccn1)N1CCCC1c1nc(-c2ccc(F)cc2F)no1 (stereo unspecified),832
4,Cc1nc(N2CCOCC2)c2c(C(=O)Nc3ccc(Cl)cc3)c(C)oc2n1,883
5,COc1ccc(-c2cc(=O)c3cc(Br)ccc3o2)cc1OC,912
6,Cc1cc(=O)n(CC(=O)Nc2cccc(C#N)c2)c(N2CCc3ccccc3C2)n1,772
7,COc1ccc(Nc2ccc3c(=O)c(-c4ccccc4OC)coc3c2)c(OC)c1,940
8,CC(C)c1ccccc1NC(=O)CN1CCN(c2ccc(Cl)cc2)C1=O,906
9,Cc1ccc(C2=NC3(CCN(C(=O)c4ccc5c(c4)OCO5)CC3)ON2)cc1,939
10,CN(CCc1noc(COc2ccc(Cl)cc2)n1)C(=O)Nc1cccc(F)c1,984
11,CS(=O)(=O)N1CCC(C(=O)N2CCCc3ccccc32)Oc2ccc(Cl)cc21 (stereo unspecified),991
12,CCOc1ccccc1CNC(=O)c1cc2c(=O)n(C)ccc2n1C,713
13,Cc1ccnc(Nc2nc(-c3ccc(C)c(C)c3)cs2)c1,902
14,CCc1nnc2cc(N3CCN(C(=O)Nc4ccccc4Cl)CC3)cnn12,548
15,CC1CCC(NC(=O)c2cc3sccc3n2Cc2ccc(F)cc2)CC1 (stereo unspecified),1260
16,CC1(C)CC(=O)c2c(O)cc(OCC(=O)O)cc2O1,738
17,COc1ccc(CCC(=O)NCC(C)(O)c2ccccc2)cc1 (stereo unspecified),709
18,CCn1ccc2sc(C)c(C(=O)NCc3ccc(OC)cc3OC)c2c1=O,814
19,O=C(Nc1ccncc1)c1cc([N+](=O)[O-])ccc1Cl,638
20,COc1ccc(Cl)cc1N1CC(c2nc(-c3ccc4c(c3)OCO4)no2)CC1=O (stereo unspecified),941
21,CCn1cc(C(=O)Nc2ccc(C)c(C)c2)c2cccnc21,937
22,Cn1ncc2c3ccccc3n(CCCC(=O)NCCc3c[nH]c4ccccc34)c2c1=O,815

# Continued, values first:
row,RP-LC retention time [s],Structure (SMILES)
1,724,COCCN1C(=O)CCc2cc(NS(=O)(=O)c3cc(OC)ccc3OC)ccc21
2,714,CSc1n[nH]c(-c2cccs2)n1
3,579,COc1cc(=O)c(C(N)=O)nn1-c1ccc(F)cc1
4,595,CC(=O)N(C)CCc1noc(C2CN(C(=O)c3c(C)noc3C)C2)n1
5,593,O=C(c1ccoc1)N1CC(N(Cc2ccncc2)CC2CC2)C1
6,616,C(#Cc1ccccc1)CN1CCN(CC#Cc2ccccc2)CC1
7,736,O=C(NC1CCN(c2cc(-c3ccc(F)cc3)[nH]n2)C1)c1ccc(F)cc1F (stereo unspecified)
8,860,CC1(C)CC(=O)N(CC(=O)Nc2c(F)c(F)c(F)c(F)c2F)c2ccccc2S1(=O)=O
9,926,Cc1ccc(NC(=O)CSc2nnc(NC(=O)c3cc(C4CC4)on3)s2)cc1Cl
10,905,O=S(=O)(Cc1ccccc1)N1CCCC(c2nnnn2-c2ccccc2)C1 (stereo unspecified)
11,766,Cn1cnc2c(C(=O)N3CCN(c4ncccn4)CC3)nn(-c3ccc(Cl)cc3)c2c1=O
12,1020,CC(C)c1noc(-c2cc(=O)n(CC(=O)NCc3ccc(Cl)cc3)c3ccccc23)n1
13,604,O=C(NCc1ccco1)C1CCCN(C(=O)NC2CC2)C1 (stereo unspecified)
14,1160,CCOc1ccc(-c2noc(Cn3nc(-c4ccc(C)cc4)ccc3=O)n2)cc1
15,843,CCCNC(=O)CCc1nc2ccccc2n(CC(=O)Nc2ccccc2C(=O)OC)c1=O
16,890,COCCNS(=O)(=O)c1ccc(-c2ccc(C)cc2)cc1
17,800,CCN1CCn2cc(S(=O)(=O)N3CCCc4ccccc43)cc2C1=O
18,1130,CCOc1ccc(NC(=O)Cn2nc(N3CCC(C)CC3)c3ccccc3c2=O)cc1
19,593,O=C(NCc1cccnc1)c1nc(CCS(=O)(=O)c2ccccc2)no1
20,663,CC(C)c1ncc(CO)n1Cc1c(Cl)cccc1Cl
21,1120,CCOc1ccc(-c2ccc(=O)n(Cc3nc(-c4cccc(C)c4)no3)n2)cc1
22,1010,Cc1ccc(-c2cc3c(N4CCCC(C(=O)NC5CCCCC5)C4)nccn3n2)c(C)c1 (stereo unspecified)
23,885,Cc1ccc2c(c1)N(Cc1ccccc1F)N=C(C(=O)N1CCCC1)S2(=O)=O
24,559,COCCNC(=O)N1CCN(Cc2nc3cc(C(=O)N(C)C)ccc3o2)CC1

row,RP-LC retention time [s],Structure (SMILES)
1,974,Cc1cc(Cl)ccc1OCc1nc(-c2ccc3c(c2)nnn3CCC(=O)N2CCOCC2)no1
2,817,CC1CCCN(c2ccc(-c3csc(S(=O)(=O)N4CCCCC4)c3)nn2)C1 (stereo unspecified)
3,863,Cc1cc(=O)n(CC(=O)Nc2ccccc2Cl)c(N2CCOCC2)n1
4,936,CCN1C(=O)COc2cc(-c3noc(C(=O)NC4CCCC4)n3)ccc21
5,619,Cc1cc(C)cc(C(=O)N2CCCC(C(=O)NCCN3CCOCC3)C2)c1 (stereo unspecified)
6,842,O=C(C1=CN(c2ccccc2F)c2cc(Cl)ccc2S1(=O)=O)N1CCCC1
7,618,CCCN1C(=O)c2c(C(=O)N3CCOCC3)ncn2CC1(C)C(=O)NCc1ccc(F)cc1 (stereo unspecified)
8,591,CCN1CCCC1CNC(=O)c1cc(S(=O)(=O)CC)c(N)cc1OC (stereo unspecified)
9,643,CCc1nc(N)n(CC(=O)Nc2cc(C)ccc2C)c(=O)c1C
10,593,CCC(CC)C(=O)Nc1ccc2nc(N3CCN(CC)CC3)cc(C)c2c1
11,858,Cc1ccc(S(=O)(=O)c2cnc(N3CCC4(CC3)OCCO4)nc2N)cc1
12,986,Cc1nc(-c2csc(S(=O)(=O)N3CCC(C(=O)Nc4ccc(Cl)cc4)CC3)c2)no1
13,826,O=c1ccc(S(=O)(=O)N2CCCC2)cn1Cc1cccc(F)c1
14,695,COc1cccc(S(=O)(=O)N2CCC(n3cnnc3C3CC3)CC2)c1
15,902,O=C(Nc1nnc(-c2cc3ccccc3o2)o1)c1ccc(Cl)s1
16,1040,CCc1nn2c(CNS(=O)(=O)Cc3ccc(C)c(C)c3)c(-c3ccccc3)nc2s1
17,991,COCC(=O)N(CC(=O)N1CCc2sccc2C1COc1ccc(Cl)cc1)C(C)(C)C (stereo unspecified)
18,1060,O=C(Cn1cccc(-c2nc(-c3ccc(Br)cc3)no2)c1=O)NCCc1ccccc1
19,836,Cc1ccc(F)cc1S(=O)(=O)N(C)CC1CCOC1 (stereo unspecified)
20,813,C=CCn1c(-c2ccc(OC)cc2)nc2nc3ccccc3nc21
21,973,CSc1cccc(NC(=O)C2CCCN(C(=O)c3ccc(Cl)cc3)C2)c1 (stereo unspecified)
22,592,COc1ccc2[nH]c(=O)c(CCC(=O)NCCCN3CCCC3=O)cc2c1
23,1150,O=C(Cc1ccccc1)N1CC(Oc2ccc(-c3nc(-c4ccccc4)no3)cc2)C1
